Reference: patent publication US20050227337A1, “Method for producing ascorbic acid intermediates” (priority 1998, published 2005)

Legend:
[1] = test system: reductase and glucose dehydrogenase (GDH); experiment: NADPH/NADP+ ratio in cofactor recycling reaction (absorbance at 340 nm); assay type: biochemical; details: final concentration 0.5 M NaCl; room temperature, pH 7
Procedure: Therefore, if the two cofactors are mixed together, the amount of NADPH present can be determined by the absorbance at 340 nm. If the amount of NADP+ originally added is also known, the ratio of the two cofactors can then be easily determined. This method can be used to measure how the addition of various components to a reaction, such as a cofactor recycling reaction, affects the reaction equilibrium.
A 1 ml reaction was set up in a cuvette at room temperature. The reaction consisted of buffer (50 mM bis-tris, pH 7), 5 mg glucose, 5 mg 2,5-DKG, 100 uM NADPH, 100 uM NADP+, reductase and glucose dehydrogenase (GDH). The enzymes were added last to initiate the reaction, and the cofactor levels were monitored at 340 nm. After equilibrium was reached (FIG. 7), an additional aliquot of GDH was added. Very quickly the equilibrium shifted to favor more NADPH being present. Addition of more GDH gave the same response.
Another 1 ml incubation was set up as above. After it reached equilibrium, 29 mg of NaCl was added to it to give a final concentration of 0.5 M NaCl.

GDH from T. acidophilum = biological target: T1, GDH from T. acidophilum (Thermoplasma acidophilum, UniProt P13203); experiment: GDH activity in the presence of methanol; assay type: biochemical; details: incubated with 10% methanol; 50 mM Tris, pH 7
T1 construct: purchased Sigma
T1 sequence (P13203 1-361): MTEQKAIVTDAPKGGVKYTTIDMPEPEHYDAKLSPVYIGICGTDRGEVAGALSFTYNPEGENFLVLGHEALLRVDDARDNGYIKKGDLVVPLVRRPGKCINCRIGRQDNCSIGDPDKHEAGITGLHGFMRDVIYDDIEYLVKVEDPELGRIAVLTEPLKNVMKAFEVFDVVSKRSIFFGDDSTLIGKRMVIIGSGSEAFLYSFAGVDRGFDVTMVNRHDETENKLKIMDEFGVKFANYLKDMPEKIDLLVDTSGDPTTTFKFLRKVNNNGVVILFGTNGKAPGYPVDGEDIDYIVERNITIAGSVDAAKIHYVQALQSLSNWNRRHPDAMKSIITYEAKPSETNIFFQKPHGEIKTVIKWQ

[2] = test system: D-gluconic acid dehydrogenase; experiment: D-gluconic acid dehydrogenase activity in permeabilized cells with methanol (product formation, HPLC); assay type: biochemical, P. citrea; details: permeabilized cells with 15% MeOH and gluconic acid
Procedure: (§1) 400 ml of P. citrea cells having a mutation in the naturally occurring membrane bound GDH was grown to 80 OD (600 nm) in 10 g/L gluconate, and mixed with 16 ml of a mixture of 10% toluene and 90% acetone for 3 minutes at 22 C. The permeabilized cells were then centrifuged for 10 minutes at 9000 rpm, and the resulting cell pellet was washed with 400 ml of 50 mM tris, pH 7. The washings were repeated twice more to ensure removal of residual organic solvent.
(§2) Permeabilized cells were incubated with 15% MeOH and gluconic acid.

[3] = test system: 2-keto-D-gluconic acid dehydrogenase; experiment: 2-keto-D-gluconic acid dehydrogenase activity in permeabilized cells with methanol (product formation, HPLC); assay type: biochemical, P. citrea; details: permeabilized cells with 15% MeOH and gluconic acid
Procedure: as §1, §2

[4] = test system: 2-keto-D-gluconate dehydrogenase; details: reported by Shinagawa and Ameyama (1982); cited from earlier work

## [Cl-].[Na+] [NaCl, sodium chloride]
[1]
  shift of NADPH/NADP+ equilibrium: dramatically shifted the equilibrium to favor the presence of NADPH

## CO [methanol]
GDH from T. acidophilum
  GDH activity: small decrease in activity
[2]
  activity of D-gluconic acid dehydrogenase: not significantly affected
[3]
  activity of 2-keto-D-gluconic acid dehydrogenase: not significantly affected

## O=C(O)CCC(=O)O [succinate]
[4]
  effect on 2-keto-D-gluconate dehydrogenase: inhibit

## O=C(O)CC(O)(CC(=O)O)C(=O)O [citrate]
[4]
  effect on 2-keto-D-gluconate dehydrogenase: inhibit
